# Results taken from patent US20250129073A1, “INHIBITOR OF RECEPTOR-INTERACTING PROTEIN KINASE 1, AND PREPARATION METHOD AND USE THEREFOR” (CHINA PHARMACEUTICAL UNIVERSITY, priority 2021, published 2025).
# Molecular target: RIPK1 kinase (Homo sapiens (Human), UniProt Q13546)
# Assay: RIPK1 kinase inhibitory assay (ADP-Glo)
# Format: biochemical
# Details: 10 μM compound; read-out: Inhibition rate of RIPK1 at 10 μM (%)
# Procedure: Materials and Instruments: ADP-Glo kinase kit (purchased from Promega), RIPK1 GST-Th-Tag (purchased from Bps Bioscience), MBP substrate (purchased from Millipore), nunc 384-well plate, ATP fluorescence analyzer Paradigm detection platform (purchased from Beckman coulter)
# The compounds were diluted in DMSO and configured into a solution with a final concentration of 10 mM; Dilute RIP1 kinase from 140 ng/μL to 20 ng/μL for use. Dilute 10 mM of ATP to 100 μM for later use; Dilute 5 mg/mL of MBP to 1 mg/mL for later use. Appropriate embodiments were added into the well of the 384-well plate, 10 μl […] ATP was evenly mixed with 1 μl 1 mg/mL MB P, the mixed solution was added to the well, and 2 μL […] RIP1 kinase was added to the hole, and then incubated at room temperature for 1 h. Subsequently, 5 μL ADP-Glo reagent was added to each well and incubated at room temperature for 40 min. Then, 10 μL ADP-Glo detection reagent was added to each well and incubated at room temperature for 30 min. Finally, the RLU value (relative light unit) of each well was measured by ATP fluorometer, and each sample was repeated twice. Inhibition rate=(RLU value of blank group−RLU value of drug administration group)/RLU value of blank group×100%.
# Sequence of RIPK1 kinase (Q13546 whole entry): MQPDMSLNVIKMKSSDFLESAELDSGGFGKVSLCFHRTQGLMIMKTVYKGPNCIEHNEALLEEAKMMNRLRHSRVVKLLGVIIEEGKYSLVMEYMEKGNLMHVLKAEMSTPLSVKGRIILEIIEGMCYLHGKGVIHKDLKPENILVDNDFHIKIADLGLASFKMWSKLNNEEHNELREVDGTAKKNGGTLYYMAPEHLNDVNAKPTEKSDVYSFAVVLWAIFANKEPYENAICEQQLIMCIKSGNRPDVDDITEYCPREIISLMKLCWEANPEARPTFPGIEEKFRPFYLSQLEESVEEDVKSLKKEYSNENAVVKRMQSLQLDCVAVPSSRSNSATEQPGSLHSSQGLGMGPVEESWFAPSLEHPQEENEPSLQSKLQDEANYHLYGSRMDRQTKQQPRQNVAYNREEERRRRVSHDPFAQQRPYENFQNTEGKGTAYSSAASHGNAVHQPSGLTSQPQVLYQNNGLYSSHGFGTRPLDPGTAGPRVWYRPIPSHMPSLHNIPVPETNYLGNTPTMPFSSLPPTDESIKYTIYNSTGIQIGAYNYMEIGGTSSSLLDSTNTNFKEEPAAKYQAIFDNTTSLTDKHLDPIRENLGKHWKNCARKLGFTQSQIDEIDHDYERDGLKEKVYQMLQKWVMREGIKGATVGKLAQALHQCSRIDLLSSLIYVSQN
row,Structure (SMILES),inhibition at 10 µM [%]
1,"CN1C(=O)N(Cc2ccccc2)C(=O)C12CCN(C(=O)c1ccccc1)CC2 [Compound 2, 8-benzoyl-3-benzyl-1-methyl-1,3,8-triazaspiro [4.5] decane-2,4-dione]",8
2,"CN1C(=O)N(Cc2cccc(Cl)c2)C(=O)C12CCN(C(=O)c1ccccc1)CC2 [Compound 3, 8-benzoyl-3-(3-chlorobenzyl)-1-methyl-1,3,8-triazaspiro[4.5]decane-2,4-dione]",11
3,"CN1C(=O)N(Cc2ccc(C(F)(F)F)cc2)C(=O)C12CCN(C(=O)c1ccccc1)CC2 [Compound 4, 8-benzoyl-1-methyl-3-(4-(trifluoromethyl)benzyl)-1,3,8-triazaspiro decane-2,4-dione]",16
4,"CN1C(=O)N(Cc2cccnc2)C(=O)C12CCN(C(=O)c1ccccc1)CC2 [Compound 5, 8-benzoyl-1-methyl-3-(pyridin-3-ylmethyl)-1,3,8-triazaspiro [4.5]decane-2,4-dione]",20
5,"CN1C(=O)N(Cc2ccccn2)C(=O)C12CCN(C(=O)c1ccccc1)CC2 [Compound 6, 8-benzoyl-1-methyl-3-(pyridin-2-ylmethyl)-1,3,8-triazaspiro [4.5]decane-2,4-dione]",4
6,"CN1C(=O)N(CC2CCCCC2)C(=O)C12CCN(C(=O)c1ccccc1)CC2 [Compound 7, 8-benzoyl-3-(cyclohexylmethyl)-1-methyl-1,3,8-triazaspiro [4.5]decane-2,4-dione]",34
7,"CN1C(=O)N(CC2CCCC2)C(=O)C12CCN(C(=O)c1ccccc1)CC2 [Compound 8, 8-benzoyl-3-(cyclopentylmethyl)-1-methyl-1,3,8-triazaspiro [4.5]decane-2,4-dione]",22
8,"O=C(c1ccccc1)N1CCC2(CC1)CCN(CC1CCCCC1)C2=O [Compound 11, 8-benzoyl-2-(cyclohexylmethyl)-2,8-diazaspiro[4.5]decan-1-one]",> 50
9,"O=C(c1ccccc1)N1CCC2(CC1)CCN(CC1CCCC1)C2=O [Compound 12, 8-benzoyl-2-(cyclopentylmethyl)-2,8-diazaspiro[4.5]decan-1-one]",> 50
10,"O=C(c1cnco1)N1CCC2(CC1)CCN(Cc1ccccc1)C2=O [Compound 18, 2-benzyl-8-(oxazole-5-carbonyl)-2,8-diazaspiro[4.5]decan-1-one]",> 50
11,"O=C1N(Cc2ccccc2)CCC12CCN(Cc1ccccc1)CC2 [Compound 19, 2,8-dibenzyl-2,8-diazaspiro[4.5]decan-1-one]",16
12,"O=C1N(Cc2ccccc2)CCC12CCN(S(=O)(=O)c1ccccc1)CC2 [Compound 20, 2-benzyl-8-(phenylsulfonyl)-2,8-diazaspiro [4.5]decan-1-one]",21
13,"CN1CCC2(CC1)CCN(Cc1ccccc1)C2=O [Compound 21, 2-benzyl-8-methyl-2,8-diazaspiro[4.5]decan-1-one]",5
14,"CC(C)N1CCC2(CCN(Cc3ccccc3)C2=O)CC1 [Compound 22, 2-benzyl-8-isopropyl-2,8-diazaspiro[4.5]decan-1-one]",8
15,"O=C(c1c[nH]c2ccccc12)N1CCC2(CC1)CCN(Cc1ccccc1)C2=O [Compound 23, 2-benzyl-8-(1H-indole-3-carbonyl)-2,8-diazaspiro[4.5]decan-1-one]",> 50
16,"O=C(c1ccc2[nH]ccc2c1)N1CCC2(CC1)CCN(Cc1ccccc1)C2=O [Compound 24, 2-benzyl-8-(1H-indole-5-carbonyl)-2,8-diazaspiro[4.5]decan-1-one]",> 50
17,"O=C(c1ccc2cc[nH]c2c1)N1CCC2(CC1)CCN(Cc1ccccc1)C2=O [Compound 25, 2-benzyl-8-(1H-indole-6-carbonyl)-2,8-diazaspiro[4.5]decan-1-one]",> 50
18,"Cn1cc(C(=O)N2CCC3(CC2)CCN(Cc2ccccc2)C3=O)c2ccccc21 [Compound 27, 2-benzyl-8-(1-methyl-1H-indole-3-carbonyl)-2,8-diazaspiro[4.5]decan-1-one]",46
19,"Cn1ccc2cc(C(=O)N3CCC4(CC3)CCN(Cc3ccccc3)C4=O)ccc21 [Compound 28, 2-benzyl-8-(1-methyl-1H-indole-5-carbonyl)-2,8-diazaspiro[4.5]decan-1-one]",3
20,"O=C1N(Cc2ccccc2)CCC12CCN(c1ncccn1)CC2 [Compound 36, 2-benzyl-8-(pyrimidin-2-yl)-2,8-diazaspiro[4.5]decan-1-one]",> 50

# Next, values leading:
row,inhibition at 10 µM [%],Structure (SMILES)
1,> 50,"O=C(c1ccccc1)N1CCC2(CC1)CCN(Cc1ccccc1)C2=O [Compound 9, 8-benzoyl-2-benzyl-2,8-diazaspiro[4.5]decan-1-one]"
2,> 50,"O=C(c1ccccc1)N1CCC2(CC1)CCN(Cc1cccc(Cl)c1)C2=O [Compound 10, 8-benzoyl-2-(3-chlorobenzyl)-2,8-diazaspiro[4.5]decan-1-one]"
3,> 50,"O=C(c1ccccc1)N1CCC2(CC1)CCN(Cc1cccnc1)C2=O [Compound 13, 8-benzoyl-2-(pyridin-3-ylmethyl)-2,8-diazaspiro[4.5]decan-1-one]"
4,> 50,"O=C(c1ccccc1)N1CCC2(CC1)CCN(Cc1ccccn1)C2=O [Compound 14, 8-benzoyl-2-(pyridin-2-ylmethyl)-2,8-diazaspiro[4.5]decan-1-one]"
5,> 50,"O=C(c1ccccc1)N1CCC2(CC1)CCN(Cc1ccc(C(F)(F)F)cc1)C2=O [Compound 15, 8-benzoyl-2-(4-(trifluoromethyl)benzyl)-2,8-diazaspiro[4.5]decan-1-one]"
6,> 50,"O=C(c1ccncc1)N1CCC2(CC1)CCN(Cc1ccccc1)C2=O [Compound 16, 2-benzyl-8-isonicotinoyl-2,8-diazaspiro[4.5]decan-1-one]"
7,45,"O=C(c1cccnc1)N1CCC2(CC1)CCN(Cc1ccccc1)C2=O [Compound 17, 2-benzyl-8-nicotinoyl-2,8-diazaspiro[4.5]decan-1-one]"
8,14,"Cn1cnc2ccc(C(=O)N3CCC4(CC3)CCN(Cc3ccccc3)C4=O)cc21 [Compound 26, 2-benzyl-8-(1-methyl-1H-benzo[d]imidazole-6-carbonyl)-2,8-diazaspiro[4.5]decan-1-one]"
9,> 50,"Cn1ccc2ccc(C(=O)N3CCC4(CC3)CCN(Cc3ccccc3)C4=O)cc21 [Compound 29, 2-benzyl-8-(1-methyl-1H-indole-6-carbonyl)-2,8-diazaspiro[4.5]decan-1-one]"
10,> 50,"O=C(c1cnco1)N1CCC2(CC1)CCN(Cc1ccccc1F)C2=O [Compound 30, 2-(2-fluorobenzyl)-8-(oxazole-5-carbonyl)-2,8-diazaspiro[4.5]decan-1-one]"
11,> 50,"O=C(c1ccccc1)N1CCC2(CC1)CCN(Cc1cccc(F)c1)C2=O [Compound 32, 8-benzoyl-2-(3-fluorobenzyl)-2,8-diazaspiro[4.5]decan-1-one]"
12,> 50,"O=C(c1ccccc1)N1CCC2(CC1)CCN(Cc1ccc(F)cc1)C2=O [Compound 33, 8-benzoyl-2-(4-fluorobenzyl)-2,8-diazaspiro[4.5]decan-1-one]"
13,> 50,"O=C(c1ccccc1)N1CCC2(CC1)CCN(Cc1cc(F)cc(F)c1)C2=O [Compound 35, 8-benzoyl-2-(3,5-difluorobenzyl)-2,8-diazaspiro[4.5]decan-1-one]"
14,> 50,"O=C(c1ccccc1)N1CCC2(CC1)CCN(Cc1c(F)cccc1F)C2=O [Compound 37, 8-benzoyl-2-(2,6-difluorobenzyl)-2,8-diazaspiro[4.5]decan-1-one]"
15,> 50,"O=C(c1ccccc1)N1CCC2(CC1)CCN(Cc1ccc(F)c(F)c1F)C2=O [Compound 38, 8-benzoyl-2-(2,3,4-trifluorobenzyl)-2,8-diazaspiro[4.5]decan-1-one]"
16,> 50,"O=C(c1ccccc1)N1CCC2(CC1)CCN(Cc1ccc(Cl)cc1F)C2=O [Compound 39, 8-benzoyl-2-(4-chloro-2-fluorobenzyl)-2,8-diazaspiro[4.5]decan-1-one]"
17,> 50,"O=C(c1ccccc1)N1CCC2(CC1)CCN(Cc1cccc(F)c1F)C2=O [Compound 40, 8-benzoyl-2-(2,3-difluorobenzyl)-2,8-diazaspiro[4.5]decan-1-one]"
18,> 50,"O=C(c1ccccc1)N1CCC2(CC1)CCN(Cc1cc(F)c(F)cc1F)C2=O [Compound 41, 8-benzoyl-2-(2,4,5-trifluorobenzyl)-2,8-diazaspiro[4.5]decan-1-one]"
19,> 50,"O=C(c1ccccc1)N1CCC2(CC1)CCN(Cc1ccc(F)cc1F)C2=O [Compound 43, 8-benzoyl-2-(2,4-difluorobenzyl)-2,8-diazaspiro[4.5]decan-1-one]"
20,43,"O=C(c1ccccc1)N1CCC2(CC1)CCN(Cc1c(F)cccc1Cl)C2=O [Compound 45, 8-benzoyl-2-(2-chloro-6-fluorobenzyl)-2,8-diazaspiro[4.5]decan-1-one]"
21,> 50,"O=C(c1ccccc1)N1CCC2(CC1)CCN(Cc1cc(Cl)ccc1F)C2=O [Compound 47, 8-benzoyl-2-(5-chloro-2-fluorobenzyl)-2,8-diazaspiro[4.5]decan-1-one]"
22,8,"N#Cc1ccc(CN2CCC3(CCN(C(=O)c4ccccc4)CC3)C2=O)c(F)c1 [Compound 48, 4-((8-benzoyl-1-oxo-2,8-diazaspiro[4.5]decan-2-yl)methyl)-3-fluorobenzonitrile]"
